# Results from US20060198925A1, “Food preservative” (priority 2003, published 2006).
# What was measured:
# yeast = experiment: Final proofing time of dough containing the additive; format: cell-based; conditions: 6.5 grams additive in dough; final proofing at 40° C. and relative humidity of 80%; time of rising to a specific maximum volume
# Procedure: Then a dough comprising the following ingredients was prepared: [table] Then a further additive was mixed with the above-mentioned dough: The four above-mentioned doughs were mixed for half a minute at slow speed in a McDuffy mixer and then for 8.5 minutes at high speed in the same mixer. The dough temperature was 26° C. The resting time was 2 minutes (at room temperature). After said resting time 420 grams of each dough was taken, and the doughs (each of 420 grams) were then rounded up softly by hand. The initial proofing time was 6 minutes (at room temperature), after which the doughs were moulded into a certain baking form. The final proofing time (at 40° C. and a relative humidity of 80%) was determined, which appeared to be dependent on the type of further additive as contained in the four above-mentioned doughs. With “final proofing time” it is herein meant the time period of rising the dough, before baking, to a certain extent being a specific maximum volume. After this final proofing the doughs were baked for 20 minutes in an oven at 210° C. (top oven temperature) and at 230° C. (bottom oven temperature). The four bread products as obtained were then stored at room temperature (and at a relative humidity of 80%). During 1 month it was determined by means of visual observation whether or not moulds were formed on the four bread products.
# moulds = experiment: Mould formation on stored bread product (visual observation); format: cell-based; conditions: bread stored at room temperature, relative humidity of 80%, visual observation during 1 month
# Procedure: The four above-mentioned doughs were mixed for half a minute at slow speed in a McDuffy mixer and then for 8.5 minutes at high speed in the same mixer. The dough temperature was 26° C. The resting time was 2 minutes (at room temperature). After said resting time 420 grams of each dough was taken, and the doughs (each of 420 grams) were then rounded up softly by hand. The initial proofing time was 6 minutes (at room temperature), after which the doughs were moulded into a certain baking form. The final proofing time (at 40° C. and a relative humidity of 80%) was determined, which appeared to be dependent on the type of further additive as contained in the four above-mentioned doughs. With “final proofing time” it is herein meant the time period of rising the dough, before baking, to a certain extent being a specific maximum volume. After this final proofing the doughs were baked for 20 minutes in an oven at 210° C. (top oven temperature) and at 230° C. (bottom oven temperature). The four bread products as obtained were then stored at room temperature (and at a relative humidity of 80%). During 1 month it was determined by means of visual observation whether or not moulds were formed on the four bread products.
smiles,measurement,setting,value
"CCC(=O)[O-].CCC(=O)[O-].[Ca+2] [Comparative, calcium propionate]",Final proofing time of dough,yeast,90 min
same,Mould formation on bread product,moulds,no
